This passage reports Relative activity and EC50 results from patent US20260265329A1, “POLYPEPTIDE AND DERIVATIVE THEREOF, COMPOSITION, AND USE THEREOF” (HANGZHOU SCIWIND BIOSCIENCES CO., LTD., priority 2023, published 2026).

Structures are written as SMILES. Starred links: 1 amine or outer side, 2 acyl side, 3 side chain; linkers in the order of their positions; H or OH if unused. Non-standard residues stand in square brackets, D forms with d. Residues, ends and D or L forms follow the SMILES beside them. *: point of attachment. C20 diacid = O=C(O)CCCCCCCCCCCCCCCCCCC(=O)*; γGlu = O=C(O)[C@H](CCC(=O)[*:2])N[*:1]; βAsp = O=C(O)[C@H](CC(=O)[*:2])N[*:1]; Trx = NC[C@H]1CC[C@H](C(=O)O)CC1; AEEA = NCCOCCOCC(=O)O; Inp = O=C(O)C1CCNCC1

In this test the target is T1, human amylin receptors (Homo sapiens, UniProt O60896+P30988).
T1 construct: host or cells: CHO-K1/Ga15/AMY3 cells, further stably transfected with a CRE-luciferase plasmid
T1 sequence (P30988 25-474): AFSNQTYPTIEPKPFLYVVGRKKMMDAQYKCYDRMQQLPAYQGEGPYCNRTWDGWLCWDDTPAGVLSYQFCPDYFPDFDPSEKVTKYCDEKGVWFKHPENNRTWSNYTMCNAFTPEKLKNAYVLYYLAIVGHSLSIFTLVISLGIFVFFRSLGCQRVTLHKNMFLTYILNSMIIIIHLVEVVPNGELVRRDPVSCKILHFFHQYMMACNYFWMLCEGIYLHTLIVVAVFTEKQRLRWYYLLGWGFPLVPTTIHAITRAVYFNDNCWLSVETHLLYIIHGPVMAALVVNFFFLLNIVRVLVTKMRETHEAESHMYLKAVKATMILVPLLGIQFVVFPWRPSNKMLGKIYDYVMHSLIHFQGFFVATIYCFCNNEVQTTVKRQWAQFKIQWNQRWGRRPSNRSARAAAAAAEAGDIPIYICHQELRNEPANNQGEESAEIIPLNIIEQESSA
T1 sequence (O60896 24-148 partner): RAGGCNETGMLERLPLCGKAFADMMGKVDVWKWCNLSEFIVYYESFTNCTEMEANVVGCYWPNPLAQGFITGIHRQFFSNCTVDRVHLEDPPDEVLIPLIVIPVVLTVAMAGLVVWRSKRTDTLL
As to the kind of experiment: Luciferase assay in stably transfected amylin receptor/CRE-luc CHO cell line. The note with it: for Relative activity: EC50 ratio of Cagrilintide to the compound, Cagrilintide 100%; for EC50: amylin receptor/CRE-luc CHO cells, 24 hours incubation, luminescence. In kind it is cell-based. An excerpt:
The objective of this assay is to test the potency of derivatives of polypeptides of the present application on human amylin receptors in vitro using a luciferase assay. Using the standard protocol, CHO-K1/Ga15/AMY3 cells (purchased from GenScript, with the calcitonin receptor and the receptor activity modifying peptide (RAMP) constructed already) were transfected with a plasmid containing a luciferase expression cassette driven by multiple copies of cAMP response elements (CREs). The cells were cultured in an F12 medium containing 200 μg/mL Zeocin, 2 μg/mL puromycin, 100 μg/mL hygromycin, and 400 μg/mL G418 to afford a stably transfected amylin receptor/CRE-luc cell line. The lyophilized powder from Example 1 was dissolved in 20 mM phosphate buffer solution with a pH of 7.0, and diluted in a growth medium (F12 culture medium containing 10% FBS) to give a derivative sample with an initial concentration of 10 nM, which was then subjected to a 5-fold serial dilution in the growth medium to obtain seven samples with concentrations between […]. In each well of a white 96-well plate, 50 μL of the tested sample solution was added with a corresponding concentration. The stably transfected amylin receptor/CRE-luc CHO cells were resuspended in the growth medium at a certain density, and 50 μL of the cell suspension was added at a density of about 20000 cells per well to the white 96-well plate containing the tested sample solution. After incubation of 24 hours at 37° C. and 5% CO2, 100 μL of a Luciferase substrate was added to each well, incubated for 3 minutes, and finally was tested for luminescence on SpectraMax L (Molecular Devices) with the software SoftMax Pro 7.0.3 GxP.

Turning to `CC[C@H](C)[C@H](NC(=O)[C@H](CC(=O)O)NC(=O)[C@H](CCCNC(=N)N)NC(=O)[C@H](CC(=O)O)NC(=O)[C@H](CCCNC(=N)N)NC(=O)[C@H](CC(=O)O)NC(=O)[C@@H](NC(=O)[C@H](Cc1ccccc1)NC(=O)[C@H](Cc1c[nH]cn1)NC(=O)[C@H](CCCNC(=N)N)NC(=O)[C@H](CC(C)C)NC(=O)[C@H](Cc1ccccc1)NC(=O)[C@H](CC(=O)O)NC(=O)[C@H](C)NC(=O)[C@H](CC(C)C)NC(=O)[C@H](CCCNC(=N)N)NC(=O)[C@H](CCC(N)=O)NC(=O)[C@@H](NC(=O)[C@H](C)NC(=O)[C@H](C)NC(=O)[C@@H](NC(=O)[C@H](CO)NC(=O)[C@H](CC(C)C)NC(=O)[C@H](CCC(N)=O)NC(=O)[C@H](CO)NC(=O)[C@H](C)NC(=O)[C@H]1CC[C@H](CNC(=O)CCCCCCCCCCCCCCCCCCC(=O)O)CC1)[C@@H](C)O)[C@@H](C)O)[C@@H](C)O)C(=O)N[C@@H](CC(C)C)C(=O)N1CCC[C@H]1C(=O)N1CCC[C@H]1C(=O)N[C@H](C(=O)N[C@@H](CC(N)=O)C(=O)N[C@H](C(=O)NCC(=O)N[C@@H](CO)C(=O)N[C@@H](CC(N)=O)C(=O)N[C@H](C(=O)N1CCC[C@H]1C(N)=O)[C@@H](C)O)C(C)C)[C@@H](C)O` [M14] ({C20 diacid-Trx}-ASQLSTAATQRLADFLRHFTDRDRDILPPTNVGSNTP-NH2), the Relative activity was found to be 136%.

By EC50 is commonly meant the concentration that produces a half-maximal response. A low value points to an effect from little substance. For the compound `CC[C@H](C)[C@H](NC(=O)[C@H](CC(=O)O)NC(=O)[C@H](CCCNC(=N)N)NC(=O)[C@H](CC(=O)O)NC(=O)[C@H](CCCNC(=N)N)NC(=O)[C@H](CC(=O)O)NC(=O)[C@@H](NC(=O)[C@H](Cc1ccccc1)NC(=O)[C@H](Cc1c[nH]cn1)NC(=O)[C@H](CCCNC(=N)N)NC(=O)[C@H](CC(C)C)NC(=O)[C@H](Cc1ccccc1)NC(=O)[C@H](CC(=O)O)NC(=O)[C@H](C)NC(=O)[C@H](CC(C)C)NC(=O)[C@H](CCCNC(=N)N)NC(=O)[C@H](CCC(N)=O)NC(=O)[C@@H](NC(=O)[C@H](C)NC(=O)[C@H](C)NC(=O)[C@@H](NC(=O)[C@H](CO)NC(=O)[C@H](CC(C)C)NC(=O)[C@H](CCC(N)=O)NC(=O)[C@H](CO)NC(=O)[C@H](C)NC(=O)C1CCN(C(=O)CCCCCCCCCCCCCCCCCCC(=O)O)CC1)[C@@H](C)O)[C@@H](C)O)[C@@H](C)O)C(=O)N[C@@H](CC(C)C)C(=O)N1CCC[C@H]1C(=O)N1CCC[C@H]1C(=O)N[C@H](C(=O)N[C@@H](CC(N)=O)C(=O)N[C@H](C(=O)NCC(=O)N[C@@H](CO)C(=O)N[C@@H](CC(N)=O)C(=O)N[C@H](C(=O)N1CCC[C@H]1C(N)=O)[C@@H](C)O)C(C)C)[C@@H](C)O` [M15] ({C20 diacid-Inp}-ASQLSTAATQRLADFLRHFTDRDRDILPPTNVGSNTP-NH2), the Relative activity was 81% and the 50% effective concentration (EC50) was 30 pM.

In the case of `CC[C@H](C)[C@H](NC(=O)[C@H](CC(=O)O)NC(=O)[C@H](CCCNC(=N)N)NC(=O)[C@H](CC(=O)O)NC(=O)[C@H](CCCNC(=N)N)NC(=O)[C@H](CC(=O)O)NC(=O)[C@@H](NC(=O)[C@H](Cc1ccccc1)NC(=O)[C@H](Cc1c[nH]cn1)NC(=O)[C@H](CCCNC(=N)N)NC(=O)[C@H](CC(C)C)NC(=O)[C@H](Cc1ccccc1)NC(=O)[C@H](CC(=O)O)NC(=O)[C@H](C)NC(=O)[C@H](CC(C)C)NC(=O)[C@H](CCCNC(=N)N)NC(=O)[C@H](CCC(N)=O)NC(=O)[C@@H](NC(=O)[C@H](C)NC(=O)[C@H](C)NC(=O)[C@@H](NC(=O)[C@H](CO)NC(=O)[C@H](CC(C)C)NC(=O)[C@H](CCC(N)=O)NC(=O)[C@H](CO)NC(=O)[C@H](C)NC(=O)COCCOCCNC(=O)COCCOCCNC(=O)CC[C@H](NC(=O)CCCCCCCCCCCCCCCCCCC(=O)O)C(=O)O)[C@@H](C)O)[C@@H](C)O)[C@@H](C)O)C(=O)N[C@@H](CC(C)C)C(=O)N1CCC[C@H]1C(=O)N1CCC[C@H]1C(=O)N[C@H](C(=O)N[C@@H](CC(N)=O)C(=O)N[C@H](C(=O)NCC(=O)N[C@@H](CO)C(=O)N[C@@H](CC(N)=O)C(=O)N[C@H](C(=O)N1CCC[C@H]1C(N)=O)[C@@H](C)O)C(C)C)[C@@H](C)O` [M16] ({C20 diacid-γGlu-AEEA-AEEA}-ASQLSTAATQRLADFLRHFTDRDRDILPPTNVGSNTP-NH2), the Relative activity is 58% and the EC50 is 42 pM.

In the case of `CC[C@H](C)[C@H](NC(=O)[C@H](CC(=O)O)NC(=O)[C@H](CCCNC(=N)N)NC(=O)[C@H](CC(=O)O)NC(=O)[C@H](CCCNC(=N)N)NC(=O)[C@H](CC(=O)O)NC(=O)[C@@H](NC(=O)[C@H](Cc1ccccc1)NC(=O)[C@H](Cc1c[nH]cn1)NC(=O)[C@H](CCCNC(=N)N)NC(=O)[C@H](CC(C)C)NC(=O)[C@H](Cc1ccccc1)NC(=O)[C@H](CC(=O)O)NC(=O)[C@H](C)NC(=O)[C@H](CC(C)C)NC(=O)[C@H](CCCNC(=N)N)NC(=O)[C@H](CCC(N)=O)NC(=O)[C@@H](NC(=O)[C@H](C)NC(=O)[C@H](C)NC(=O)[C@@H](NC(=O)[C@H](CO)NC(=O)[C@H](CC(C)C)NC(=O)[C@H](CCC(N)=O)NC(=O)[C@H](CO)NC(=O)[C@H](C)NC(=O)COCCOCCNC(=O)COCCOCCNC(=O)[C@H](CCC(=O)O)NC(=O)CCCCCCCCCCCCCCCCCCC(=O)O)[C@@H](C)O)[C@@H](C)O)[C@@H](C)O)C(=O)N[C@@H](CC(C)C)C(=O)N1CCC[C@H]1C(=O)N1CCC[C@H]1C(=O)N[C@H](C(=O)N[C@@H](CC(N)=O)C(=O)N[C@H](C(=O)NCC(=O)N[C@@H](CO)C(=O)N[C@@H](CC(N)=O)C(=O)N[C@H](C(=O)N1CCC[C@H]1C(N)=O)[C@@H](C)O)C(C)C)[C@@H](C)O` [M17] ({C20 diacid}-E[AEEA][AEEA]ASQLSTAATQRLADFLRHFTDRDRDILPPTNVGSNTP-NH2), the Relative activity is 94% and the response was half-maximal at 26 pM (EC50).

On to `CC[C@H](C)[C@H](NC(=O)[C@H](CC(=O)O)NC(=O)[C@H](CCCNC(=N)N)NC(=O)[C@H](CC(=O)O)NC(=O)[C@H](CCCNC(=N)N)NC(=O)[C@H](CC(=O)O)NC(=O)[C@@H](NC(=O)[C@H](Cc1ccccc1)NC(=O)[C@H](Cc1c[nH]cn1)NC(=O)[C@H](CCCNC(=N)N)NC(=O)[C@H](CC(C)C)NC(=O)[C@H](Cc1ccccc1)NC(=O)[C@H](CC(=O)O)NC(=O)[C@H](C)NC(=O)[C@H](CC(C)C)NC(=O)[C@H](CCCNC(=N)N)NC(=O)[C@H](CCC(N)=O)NC(=O)[C@@H](NC(=O)[C@H](C)NC(=O)[C@H](C)NC(=O)[C@@H](NC(=O)[C@H](CO)NC(=O)[C@H](CC(C)C)NC(=O)[C@H](CCC(N)=O)NC(=O)[C@H](CO)NC(=O)[C@H](C)NC(=O)COCCOCCNC(=O)COCCOCCNC(=O)C[C@H](NC(=O)CCCCCCCCCCCCCCCCCCC(=O)O)C(=O)O)[C@@H](C)O)[C@@H](C)O)[C@@H](C)O)C(=O)N[C@@H](CC(C)C)C(=O)N1CCC[C@H]1C(=O)N1CCC[C@H]1C(=O)N[C@H](C(=O)N[C@@H](CC(N)=O)C(=O)N[C@H](C(=O)NCC(=O)N[C@@H](CO)C(=O)N[C@@H](CC(N)=O)C(=O)N[C@H](C(=O)N1CCC[C@H]1C(N)=O)[C@@H](C)O)C(C)C)[C@@H](C)O` [M18] ({C20 diacid-βAsp-AEEA-AEEA}-ASQLSTAATQRLADFLRHFTDRDRDILPPTNVGSNTP-NH2), for which the Relative activity stood at 110%.

As to `CC[C@H](C)[C@H](NC(=O)[C@H](CC(=O)O)NC(=O)[C@H](CCCNC(=N)N)NC(=O)[C@H](CC(=O)O)NC(=O)[C@H](CCCNC(=N)N)NC(=O)[C@H](CC(=O)O)NC(=O)[C@@H](NC(=O)[C@H](Cc1ccccc1)NC(=O)[C@H](Cc1c[nH]cn1)NC(=O)[C@H](CCCNC(=N)N)NC(=O)[C@H](CC(C)C)NC(=O)[C@H](Cc1ccccc1)NC(=O)[C@H](CC(=O)O)NC(=O)[C@H](C)NC(=O)[C@H](CC(C)C)NC(=O)[C@H](CCCNC(=N)N)NC(=O)[C@H](CCC(N)=O)NC(=O)[C@@H](NC(=O)[C@H](C)NC(=O)[C@H](C)NC(=O)[C@@H](NC(=O)[C@H](CO)NC(=O)[C@H](CC(C)C)NC(=O)[C@H](CCC(N)=O)NC(=O)[C@H](CO)NC(=O)[C@H](C)NC(=O)COCCOCCNC(=O)COCCOCCNC(=O)[C@H](CC(=O)O)NC(=O)CCCCCCCCCCCCCCCCCCC(=O)O)[C@@H](C)O)[C@@H](C)O)[C@@H](C)O)C(=O)N[C@@H](CC(C)C)C(=O)N1CCC[C@H]1C(=O)N1CCC[C@H]1C(=O)N[C@H](C(=O)N[C@@H](CC(N)=O)C(=O)N[C@H](C(=O)NCC(=O)N[C@@H](CO)C(=O)N[C@@H](CC(N)=O)C(=O)N[C@H](C(=O)N1CCC[C@H]1C(N)=O)[C@@H](C)O)C(C)C)[C@@H](C)O` [M19] ({C20 diacid}-D[AEEA][AEEA]ASQLSTAATQRLADFLRHFTDRDRDILPPTNVGSNTP-NH2), the Relative activity stood at 80% and the half-maximal effective concentration (EC50) worked out at 36 pM.
